Assays:
[1] = cited from earlier work
[2] = Physicochemical properties (PBPK model inputs); conditions: model input
From the text: The molecular weight of MBQ-167 is 338.414 g/mol and the water partition coefficient (logPoctanol:water) ratio is 4.944. […] The fu in plasma was estimated to 0.02. B/P ratio was initially estimated in the base PBPK model development phase and then optimized using a local sensitivity analysis (LSA) with a final value of 1.8.

[3] = Intrinsic clearance from in vitro hepatocytes; format: in vitro ADME; conditions: in vitro determined, read-out: Hep intrinsic CL
From the text: (§1) Due to the limited information of any active process in MBQ-167 renal excretion and/or tubular reabsorption, it was assumed that renal excretion was only mediated by glomerular filtration.

[4] = Metabolism on incubation in liver microsomes; format: in vitro ADME; conditions: incubated in liver microsomes
From the text: as §1

[5] = biological target: T1, CYP1A2 (Homo sapiens, UniProt P05177); test: CYP inhibition; format: in vitro ADME
T1 sequence (P05177 1-516): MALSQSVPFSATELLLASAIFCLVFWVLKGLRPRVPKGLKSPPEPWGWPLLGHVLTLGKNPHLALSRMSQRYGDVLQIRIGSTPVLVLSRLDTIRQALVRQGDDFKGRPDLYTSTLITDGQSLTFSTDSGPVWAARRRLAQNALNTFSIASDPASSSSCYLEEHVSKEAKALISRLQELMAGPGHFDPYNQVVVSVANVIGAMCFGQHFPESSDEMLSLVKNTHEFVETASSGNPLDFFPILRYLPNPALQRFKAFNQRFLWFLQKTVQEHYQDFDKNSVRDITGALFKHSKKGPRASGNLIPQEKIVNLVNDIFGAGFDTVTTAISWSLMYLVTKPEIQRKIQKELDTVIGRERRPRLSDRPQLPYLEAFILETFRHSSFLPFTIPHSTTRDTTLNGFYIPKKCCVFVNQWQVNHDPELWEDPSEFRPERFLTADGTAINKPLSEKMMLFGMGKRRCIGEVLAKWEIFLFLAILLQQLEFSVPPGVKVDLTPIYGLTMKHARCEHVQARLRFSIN
From the text: as §1

[6] = biological target: CYP2C19 (Homo sapiens, UniProt P33261); test: CYP inhibition; format: in vitro ADME
Chain of CYP2C19 (P33261 whole entry): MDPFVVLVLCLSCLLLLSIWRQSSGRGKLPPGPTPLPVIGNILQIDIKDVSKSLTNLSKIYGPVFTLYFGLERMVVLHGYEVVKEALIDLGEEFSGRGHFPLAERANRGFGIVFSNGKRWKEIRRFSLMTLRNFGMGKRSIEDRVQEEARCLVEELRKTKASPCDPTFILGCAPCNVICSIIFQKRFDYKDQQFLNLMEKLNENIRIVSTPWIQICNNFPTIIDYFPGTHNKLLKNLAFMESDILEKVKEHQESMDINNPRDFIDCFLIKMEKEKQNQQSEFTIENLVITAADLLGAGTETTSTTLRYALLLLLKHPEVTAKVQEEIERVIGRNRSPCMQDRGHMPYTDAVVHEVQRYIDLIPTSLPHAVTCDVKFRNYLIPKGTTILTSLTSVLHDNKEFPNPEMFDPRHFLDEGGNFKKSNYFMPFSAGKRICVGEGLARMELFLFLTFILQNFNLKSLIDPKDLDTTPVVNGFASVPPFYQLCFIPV
From the text: as §1

[7] = biological target: CYP2C9 (Homo sapiens, UniProt P11712); test: CYP inhibition; format: in vitro ADME
Chain of CYP2C9 (P11712 whole entry): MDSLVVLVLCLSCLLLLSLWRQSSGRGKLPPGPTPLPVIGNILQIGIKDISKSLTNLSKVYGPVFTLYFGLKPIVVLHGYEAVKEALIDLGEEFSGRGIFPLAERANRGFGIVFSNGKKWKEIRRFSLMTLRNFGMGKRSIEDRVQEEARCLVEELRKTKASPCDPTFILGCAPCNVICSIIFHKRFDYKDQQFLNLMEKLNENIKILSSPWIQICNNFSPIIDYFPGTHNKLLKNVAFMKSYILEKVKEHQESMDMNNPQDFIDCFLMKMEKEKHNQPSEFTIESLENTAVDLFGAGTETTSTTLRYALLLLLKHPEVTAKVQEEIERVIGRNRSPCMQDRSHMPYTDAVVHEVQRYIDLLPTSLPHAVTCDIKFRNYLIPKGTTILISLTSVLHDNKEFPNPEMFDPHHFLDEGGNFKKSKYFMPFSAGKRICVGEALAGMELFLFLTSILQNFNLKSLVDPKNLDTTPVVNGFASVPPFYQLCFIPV
From the text: as §1

[8] = biological target: CYP3A4 (Homo sapiens, UniProt P08684); test: CYP inhibition; format: in vitro ADME
Chain of CYP3A4 (P08684 whole entry): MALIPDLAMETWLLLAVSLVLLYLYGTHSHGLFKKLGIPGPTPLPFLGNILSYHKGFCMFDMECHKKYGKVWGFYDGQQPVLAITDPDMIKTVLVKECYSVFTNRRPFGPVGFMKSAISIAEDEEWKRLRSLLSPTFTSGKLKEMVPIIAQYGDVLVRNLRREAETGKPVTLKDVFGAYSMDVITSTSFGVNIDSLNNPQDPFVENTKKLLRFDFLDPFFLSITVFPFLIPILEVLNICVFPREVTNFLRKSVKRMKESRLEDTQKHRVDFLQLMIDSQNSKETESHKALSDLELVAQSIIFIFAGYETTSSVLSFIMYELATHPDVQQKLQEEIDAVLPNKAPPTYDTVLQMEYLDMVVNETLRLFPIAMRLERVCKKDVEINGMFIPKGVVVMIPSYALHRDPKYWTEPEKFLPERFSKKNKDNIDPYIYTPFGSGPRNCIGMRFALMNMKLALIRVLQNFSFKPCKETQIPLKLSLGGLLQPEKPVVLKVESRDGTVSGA
From the text: as §1

[9] = Plasma and tissue pharmacokinetics after single IP dose (observed); format: in vivo; conditions: female, BALB/c, mouse, single IP 10 mg/kg, mice; for AUC(0-t): read-out: AUC obs (AUC0-t)
Experimental: All animal studies were conducted under approved animal protocols (#A8180117, #A8180112) by the University of Puerto Rico Medical Sciences Campus Institutional Animal Care and Use Committee, in accordance with the principles and procedures outlined in the NIH Guideline for the Care and Use of Laboratory Animals. Four to five-week-old female BALB/c mice (Charles River Laboratories, Inc. Wilmington, MA, USA) were housed under pathogen-free conditions in HEPA-filtered cages and kept on a 12 h light/dark cycle, and controlled temperature (22–24 °C), and humidity (25%). Food and water were given ad libitum. MBQ-167 was prepared as a stock solution of 2 mg/mL in Cremophor®:ethanol:PBS (12.5:12.5:75) solution. Each mouse was administered a single 0.1 mL dose of MBQ-167 (in 12.5% ethanol, 12.5% Cremophor®, 75% phosphate buffered saline, pH 7.4) that corresponded to 10 mg/kg body weight (BW) by IP injection.
We used a validated bioanalytical method using supercritical fluid chromatography coupled with tandem mass spectrometry to quantify MBQ-167 in tumors and tissues, as previously described. The analysis was performed on an Acquity UPC^2 system (Waters Corp., Milford, MA, USA) coupled to a triple quadrupole tandem mass spectrometer (MS/MS). An Acquity UPC^2 BEH (3.0 × 100 mm^2, 1.7 μm) column was used for separation purposes.
The final MBQ-167 PBPK model was verified through both graphical and numerical analysis. Experimental and predicted longitudinal plasma concentration- (Cp) and tissue concentration- (Ct) profiles were generated, including the 95% confidence intervals (95% CI) of the observations at each sampling time and the mean predicted concentrations. LSA was performed to evaluate the relative impact of B/P, fu, CLR, CLtumor and PS in the plasma PK exposure parameters (AUC0-t and Cmax). The performance of the MBQ-167 PBPK model was assessed by the fold error at each tissue, which referred to the ratio of the predicted AUC0-t or Cmax to the observed AUC0-t or Cmax, respectively (Equation (1)). AUC0-t was calculated by the trapezoidal rule. Both graphical and numerical analyses were performed in RStudio version 1.2.5019 (Boston, MA, USA, 2019) with R version 3.5.1 (GNU project). (1) Fold ERROR PK parameter=Predicted PK parameter/Observed PK parameter

[10] = Tumor pharmacokinetics in 4T1 tumor-bearing mice (observed); format: in vivo; conditions: BALB/c, mouse, tumor (4T1), single IP 10 mg/kg
Experimental: Thirty-five BALB/c mice were injected with 2.5 × 10^5 4T1 murine metastatic breast cancer cells at the mammary fat pad under isoflurane inhalation (1–3% in oxygen using an inhalation chamber at 2 L/min) to produce primary tumors, as described. Following IP treatment with a single dose of MBQ-167 (10 mg/kg), five mice/group were sacrificed by cervical dislocation at 0.5, 1, 3, 6, 9,12, and 24 h. Following sacrifice, tumors were collected and flushed with normal saline, individually wrapped in aluminum foil, snap-frozen in liquid nitrogen, and stored frozen at −80 °C until use.
Tumor samples were extracted by liquid-liquid extraction method, as previously described by. Briefly, frozen tumors were thawed, weighed (100 mg), and homogenized using the Polytron PT 2100 instrument in pH 7.4 saline (1:4 w/v). […]
We used a validated bioanalytical method using supercritical fluid chromatography coupled with tandem mass spectrometry to quantify MBQ-167 in tumors and tissues, as previously described. […]
The final MBQ-167 PBPK model was verified through both graphical and numerical analysis. […] The performance of the MBQ-167 PBPK model was assessed by the fold error at each tissue, which referred to the ratio of the predicted AUC0-t or Cmax to the observed AUC0-t or Cmax, respectively (Equation (1)). AUC0-t was calculated by the trapezoidal rule. […]

[11] = test system: GFP-MDA-MB-231 (TNBC) mammary fat pad tumors; test: Triple Negative tumor growth study (observed); format: in vivo, athymic nude (nu/nu) mice; conditions: 10 mg/kg BW IP three times a week for 108 days
Experimental: As published elsewhere, female athymic nude (nu/nu) mice, 4 to 5 weeks old (Charles River Laboratories, Inc., Wilmington, MA, USA) were maintained under pathogen-free conditions in HEPA-filtered cages (5 mice per cage) under controlled light (12 h light and dark cycle), temperature (22–24 °C), and humidity (25%).
Mammary fat pad tumors were established using green fluorescent protein (GFP)-tagged MDA-MB-435 (HER2++) cells in Matrigel (BD Biosciences, San Jose, CA, USA) or GFP-MDA-MB-231 (TNBC) cells by injecting at the fourth right mammary fat pad under isofluorane inhalation (1–3% in oxygen using an inhalation chamber at 2 L/min) to produce orthotopic primary tumors. […]
Mammary tumor growth was quantified as changes in the integrated density of green fluorescent protein (GFP) fluorescence. […] The FluorVivo small animal in vivo imaging system (INDEC Systems, Inc., Santa Clara, CA, USA) was used for whole body imaging of GFP fluorescence. Tumor fluorescence intensities were analyzed using Image J software (National Institutes of Health, Bethesda, MD, USA, 2019, Version 1.52q 13). Relative tumor growth was calculated as the integrated density of fluorescence of each tumor on each day of imaging relative to the integrated density of fluorescence of the same tumor on day 1 of treatment administration, relative to vehicle controls.

[12] = test system: Cdc42; design: method as in PMID 28450422; conditions: inhibition of GTPase activation; read-out: half-maximal inhibitory concentration (IC50) for Cdc42; cited from earlier work
[13] = design: method as in PMID 31720502; conditions: cited from earlier work
[14] = test system: mammary fat pad tumor and metastases; conditions: cited from earlier work

SMILES: O=c1cc(CN2CCOCC2)occ1OCCCCCSc1ccnc2cc(C(F)(F)F)ccc12 [EHT1864]
- t1/2 [1]: 1.65 h

SMILES: CCn1c2ccccc2c2cc(-n3nncc3-c3ccccc3)ccc21 [MBQ-167]
- Compound Type [2]: Monoprotic Base
- pKa ([2]; source not stated): 0.27
- logPo:w ([2]; octanol:water, source not stated): 4.944
- hepatocyte CLint [3]: 79 µL/min/1e6 cells
- metabolites formed [4]: up to nine metabolites
- CYP1A2 inhibition [5]: inhibits
- CYP2C19 inhibition [6]: inhibits
- CYP2C9 inhibition [7]: inhibits
- CYP3A4 inhibition [8]: inhibits
- Cmax ([9]; heart): 841 ng/mL
- AUC(0-t) ([9]; heart): 949 ng·h/mL
- Cmax ([9]; kidneys): 11200 ng/mL
- AUC(0-t) ([9]; kidneys): 34300 ng·h/mL
- Cmax ([9]; liver): 4790 ng/mL
- AUC(0-t) ([9]; liver): 8390 ng·h/mL
- Cmax ([9]; lung): 1540 ng/mL
- AUC(0-t) ([9]; lung): 1890 ng·h/mL
- Cmax ([9]; plasma): 840 ng/mL
- AUC(0-t) ([9]; plasma): 1420 ng·h/mL
- Cmax ([9]; spleen): 1690 ng/mL
- AUC(0-t) ([9]; spleen): 3980 ng·h/mL
- Cmax [10]: 1240 ng/mL
- AUC(0-t) ([10]; read-out: AUC obs (AUC0-t)): 10300 ng·h/mL
- observed relative reduction in the final tumor size [11]: 87.0%
- volume of distribution reported in the literature ([13]; mice of 20 g body weight): 400 mL
- systemic plasma clearance (reported/observed) ([13]; mice): 2.15 mL/min
- effect on metastases ([14]; 10 mg/kg BW, mice): total inhibition of metastases
- start of mammary fat pad tumor size reduction after treatment ([14]; 10 mg/kg BW, mice): approximately 3 weeks
- toxicity in vivo ([14]; preclinical studies): without apparent toxicity

SMILES: CCn1c2ccccc2c2cc(Nc3ccnc(NCCCN4CCOCC4)n3)ccc21 [EHop-016]
- t1/2 [1]: 5.73 h
